Measured values published in patent publication US6495160B2, “Biphasic multicomponent pharmaceutical dosage forms containing substances able to modify the partitioning of drugs” (Eurand International S.p.A., priority 1997, dated 2002).

Assay: Apparent partition coefficient (Pm) between oil and water phases
Type: physicochemical
Settings: oily phase Labrafac Hydro, benzyl alcohol 1:1, 24 hours
Protocol: The water volume contained a starting concentration of active principle (C0) which was lower than the solubility of the active principle in each of the two phases. At the end of the experiment, the concentrations of active principle in the water phase (CA) were measured by cromatography (HPLC).

Partition coefficient (Pm) of the Active Principle (NMP 0% in aqueous phase): 1.75
Partition coefficient (Pm) of the Active Principle (NMP 5% in aqueous phase): 36.7
Partition coefficient (Pm) of the Active Principle (NMP 10% in aqueous phase): 63.5
Partition coefficient (Pm) of the Active Principle (NMP 15% in aqueous phase): 98.3
Partition coefficient (Pm) of the Active Principle (NMP 20% in aqueous phase): 29.6
SMILES: CS(=O)(=O)Nc1ccc([N+](=O)[O-])cc1Oc1ccccc1 [NIME, Nimesulide]
